Source: patent US6440406B1, “Attractant for monitoring and control of adult scarabs” (The United States of America as represented by the …, priority 1997, dated 2002)

Assays:
Type in all cases: in vivo
Cotinis nitida = assay: Field trap capture, College Station, TX; conditions: number of incidents over the study where more than one target insect was trapped (male and female, 4 repetitions)
Experimental: (§1) The mixture of all five volatile components, prepared as described in Lopez et al. (U.S. patent application Ser. No. 09/166,655, filed Oct. 5, 1998) was evaluated as an attractant for scarabs. Evaluations using the mixture in traps were conducted at various sites at Dallas, Tex., adjacent to corn or cotton fields in an agricultural area SW of College Station, Tex., and in different habitats at various locations in Mexico. The primary trap used was the Trece Catch Can with a yellow top and a green catch container obtained from Trece, Inc., Salinas, Calif. At College Station only, wire cone traps originally designed to capture noctuid moths (Hartstack et al., Jour. Econ. Entomol., 72:319-322, 1979) were also used in the evaluations. The traps were operated about 1 meter above ground level and were spaced at different distances based on the amount of space available in which to conduct the evaluations. Treatments were assigned to traps in trap lines either randomly or rotated every time the traps were checked to minimize trap location effects. Attractants for evaluation were dispensed primarily from sintered polyethylene to which the attractant was added until saturated. The sintered polyethylene was placed in various plastic containers to facilitate placing on the traps for evaluation. At College Station only, cotton dental wicks were used to dispense the attractants for evaluation by applying the attractants mixed with methylene chloride as a solvent. Traps were checked as appropriate based on the number of numbers of scarabs trapped.
(§2) The volatile components were evaluated individually and in combination for efficacy for capturing scarabs. The evaluations were conducted as described in Example 1 near College Station, Tex., and Dallas, Tex., except that the volatile components were assayed individually as well.
(§3) In the College Station, Tex., data, the numbers represent the frequencies or number of incidents, over the course of the study, where more than one target insect was trapped (male and female, 4 repetitions). The Dallas, Tex., data represents the numbers of males/females captured. Abbreviations for the active agents tested are as follows: Mix M=five component mixture as described in Example 1, MMB=methyl-2-methoxybenzoate, MS=methyl salicylate, PA=phenylacetaldehyde, PE=2-phenylethanol, PEG=Japanese Beetle Lure, and SL=limonene.

Euphoria sedpulcralis = assay: Field trap capture, College Station, TX; conditions: number of incidents over the study where more than one target insect was trapped (male and female, 4 repetitions)
Experimental: as §1, §2, §3

Phyllophaga crinita = assay: Field trap capture, Dallas, TX; conditions: baited traps
Experimental: as §1, §2, §3

Phyllophaga congrua = assay: Field trap capture, Dallas, TX; conditions: baited traps
Experimental: as §1, §2, §3

Phyllophaga crassissima = assay: Field trap capture, Dallas, TX; conditions: baited traps
Experimental: as §1, §2, §3

Structure (SMILES) | Frequencies of trapping > 1 beetle (Cotinis nitida) | Frequencies of trapping > 1 beetle (Euphoria sedpulcralis) | no. females captured (Phyllophaga crinita) | no. males captured (Phyllophaga crinita) | no. females captured (Phyllophaga congrua) | no. males captured (Phyllophaga congrua) | no. females captured (Phyllophaga crassissima) | no. males captured (Phyllophaga crassissima)
CC=Cc1ccc(OC)cc1 [Anethol, reference compound] | 1 | 0 | 0 | 14 | 3 | 0 | 56 | 79
COC(=O)c1ccccc1OC [MMB, methyl-2-methoxybenzoate] | 1 | 0 | 7 | 8627 | 3 | 0 | 11 | 16
COC(=O)c1ccccc1O [MS, methyl salicylate] | 0 | 0 | 0 | 23 | 0 | 4 | 10 | 6
O=CCc1ccccc1 [PA, phenylacetaldehyde] | 13 | 1 | 1 | 16 | 1 | 5 | 3 | 9
OCCc1ccccc1 [PE, 2-phenylethanol] | 2 | 0 | 1 | 11 | 2 | 5 | 5 | 8
C=C(C)[C@H]1CC=C(C)CC1 [SL, limonene] | 0 | 0 | 3 | 32 | 2 | 1 | 3 | 4
